Laboratory results as given in ChEMBL document CHEMBL2062441, “An Orally Available 3-Ethoxybenzisoxazole Capsid Binder with Clinical Activity against Human Rhinovirus” (ACS Med Chem Lett, 2012).
Converted amounts (≈) assume the structure as drawn. Values belong to the compound of their own block, whether it stands above or below them.

Columns and labels:
[1] = system: Human rhinovirus sp.; assay: Ratio of EC50 for major receptor-resistant Human rhinovirus B to EC50 for minor receptor-resistant Human rhinovirus A; type: functional
[2] = system: Human rhinovirus sp.; assay: Ratio of EC50 for Human rhinovirus B to EC50 for Human rhinovirus A; type: functional
[3] = system: Human rhinovirus sp.; assay: Antirhinoviral activity against major receptor-resistant Human rhinovirus infected in human HeLa cells assessed as inhibition of virus-induced cytopathic effect after 5 days by MTT assay; type: functional, organism-based; conditions: 120 h
[4] = system: Human rhinovirus sp.; assay: Ratio of EC50 for antiviral-resistant Human rhinovirus B to EC50 for antiviral-resistant Human rhinovirus A; type: functional
[5] = system: Human rhinovirus sp.; assay: Antirhinoviral activity against antiviral-resistant Human rhinovirus A infected in human HeLa cells assessed as inhibition of virus-induced cytopathic effect after 5 days by MTT assay; type: functional, organism-based; conditions: 120 h
[6] = system: Human rhinovirus sp.; assay: Antirhinoviral activity against Human rhinovirus B infected in human HeLa cells assessed as inhibition of virus-induced cytopathic effect after 5 days by MTT assay; type: functional, organism-based; conditions: 120 h
[7] = system: Human rhinovirus sp.; assay: Antirhinoviral activity against minor receptor-resistant Human rhinovirus infected in human HeLa cells assessed as inhibition of virus-induced cytopathic effect after 5 days by MTT assay; type: functional, organism-based; conditions: 120 h
[8] = system: Human rhinovirus sp.; assay: Antirhinoviral activity against Human rhinovirus A infected in human HeLa cells assessed as inhibition of virus-induced cytopathic effect after 5 days by MTT assay; type: functional, organism-based; conditions: 120 h
[9] = system: Human rhinovirus sp.; assay: Antirhinoviral activity against antiviral-resistant Human rhinovirus B infected in human HeLa cells assessed as inhibition of virus-induced cytopathic effect after 5 days by MTT assay; type: functional, organism-based; conditions: 120 h
[10] = system: Human rhinovirus sp.; assay: Antirhinoviral activity against Human rhinovirus 14 infected in human HeLa cells assessed as inhibition of virus-induced cytopathic effect after 5 days by MTT assay; type: functional, organism-based; conditions: Human rhinovirus sp., 14, HeLa, 120 h
[11] = system: rhinovirus A2; assay: Antirhinoviral activity against Human rhinovirus 2 infected in human HeLa cells assessed as inhibition of virus-induced cytopathic effect after 5 days by MTT assay; type: functional, organism-based; conditions: Rhinovirus A, 120 h
[12] = AUC (0 to infinity) in human at 400 mg administered as single dose; conditions: plasma
[13] = in vivo; conditions: female, beagle, dog, po, 50 mg/kg
Description: Tmax in female beagle dog at 50 mg/kg, po

[14] = in vivo; conditions: female, beagle, dog, po, 50 mg/kg; remark: listed apart in the source
Description: Cmax in female beagle dog at 50 mg/kg, po

[15] = Half life in male lister hooded rat at 50 mg/kg, po; conditions: in vivo
[16] = Half life in human at 400 mg administered as single dose; conditions: in vivo
[17] = Tmax in human at 400 mg administered as single dose; conditions: in vivo
[18] = in vivo; conditions: female, Lister hooded, rat, po, 50 mg/kg
Description: Cmax in female lister hooded rat at 50 mg/kg, po

[19] = in vivo; conditions: male, Lister hooded, rat, plasma, po, 50 mg/kg
Description: AUC in male lister hooded rat at 50 mg/kg, po

[20] = in vivo; conditions: female, beagle, dog, plasma, po, 50 mg/kg
Description: AUC in female beagle dog at 50 mg/kg, po

[21] = Half life in female lister hooded rat at 50 mg/kg, po; conditions: in vivo
[22] = in vivo; conditions: male, beagle, dog, po, 50 mg/kg
Description: Tmax in male beagle dog at 50 mg/kg, po

[23] = in vivo; conditions: female, Lister hooded, rat, plasma, po, 50 mg/kg
Description: AUC in female lister hooded rat at 50 mg/kg, po

[24] = Half life in male beagle dog at 50 mg/kg, po; conditions: in vivo
[25] = in vivo; conditions: male, Lister hooded, rat, po, 50 mg/kg
Description: Tmax in male lister hooded rat at 50 mg/kg, po

[26] = in vivo; conditions: male, Lister hooded, rat, po, 50 mg/kg; remark: listed apart in the source
Description: Cmax in male lister hooded rat at 50 mg/kg, po

[27] = Cmax in human at 400 mg administered as single dose; conditions: in vivo
[28] = in vivo; conditions: male, Lister hooded, rat, po, 50 mg/kg; remark: listed apart in the source
Description: Oral bioavailability in male lister hooded rat at 50 mg/kg administered as single dose

[29] = in vivo; conditions: female, Lister hooded, rat, po, 50 mg/kg; remark: listed apart in the source
Description: Oral bioavailability in female lister hooded rat at 50 mg/kg administered as single dose

[30] = in vivo; conditions: female, Lister hooded, rat, po, 50 mg/kg; remark: listed apart in the source
Description: Tmax in female lister hooded rat at 50 mg/kg, po

[31] = in vivo; conditions: male, beagle, dog, plasma, po, 50 mg/kg
Description: AUC in male beagle dog at 50 mg/kg, po

[32] = Half life in female beagle dog at 50 mg/kg, po; conditions: in vivo
[33] = in vivo; conditions: male, beagle, dog, po, 50 mg/kg; remark: listed apart in the source
Description: Cmax in male beagle dog at 50 mg/kg, po

SMILES: CCOC(=O)/C=C/[C@H](C[C@@H]1CCNC1=O)NC(=O)[C@@H](CC(=O)[C@@H](NC(=O)c1cc(C)on1)C(C)C)Cc1ccc(F)cc1 [RUPINTRIVIR]
Ratio EC50 [1]: 2
Ratio EC50 [2]: 1.7
EC50 [3]: 1.5 ng/mL (≈ 0.00251 µM)
Ratio EC50 [4]: 1.7
EC50 [5]: 1.2 ng/mL (≈ 0.002 µM)
EC50 [6]: 1.2 ng/mL (≈ 0.002 µM)
EC50 [7]: 3 ng/mL (≈ 0.00501 µM)
EC50 [8]: 2 ng/mL (≈ 0.00334 µM)
EC50 [9]: 2 ng/mL (≈ 0.00334 µM)

SMILES: CCOC(=O)c1ccc(OCCC2CCN(c3ccc(C)nn3)CC2)cc1 [PIRODAVIR]
EC50 [10]: 4 ng/mL (≈ 0.0108 µM)
Ratio EC50 [1]: 2.4
Ratio EC50 [2]: 2.8
EC50 [3]: 5.6 ng/mL (≈ 0.0152 µM)
Ratio EC50 [4]: 8.1
EC50 [5]: 20.6 ng/mL (≈ 0.0558 µM)
EC50 [6]: 11.1 ng/mL (≈ 0.03 µM)
EC50 [7]: 2.3 ng/mL (≈ 0.00623 µM)
EC50 [8]: 4 ng/mL (≈ 0.0108 µM)
EC50 [9]: 2.6 ng/mL (≈ 0.00704 µM)
EC50 [11]: 3 ng/mL (≈ 0.00812 µM)

SMILES: CCc1noc2cc(OCCC3CCN(c4ccc(C)nn4)CC3)ccc12
EC50 [10]: 88 ng/mL (≈ 0.24 µM)
EC50 [11]: 24 ng/mL (≈ 0.0655 µM)

SMILES: CCOc1nsc2cc(OCCC3CCN(c4ccc(C)nn4)CC3)ccc12
EC50 [10]: 29 ng/mL (≈ 0.0728 µM)
EC50 [11]: 3 ng/mL (≈ 0.00753 µM)

AUC(0-inf) [12]: 13.8 µg·h/mL
Tmax [13]: 7.7 h
Cmax [14]: 6100 ng/mL
half-life [15]: 51.6 h
half-life [16]: 11.8 h
Tmax [17]: 1.03 h
Cmax [18]: 17700 ng/mL
AUC [19]: 483 µg·h/mL
AUC [20]: 121 µg·h/mL
half-life [21]: 46.4 h
Tmax [22]: 14.7 h
AUC [23]: 489 µg·h/mL
half-life [24]: 18.3 h
Tmax [25]: 16 h
Cmax [26]: 22500 ng/mL
Cmax [27]: 1890 ng/mL
bioavailability [28]: 94%
bioavailability [29]: 95%
Tmax [30]: 11.2 h
AUC [31]: 202 µg·h/mL
half-life [32]: 15.9 h
Cmax [33]: 11000 ng/mL
SMILES: CCOc1noc2cc(OCCC3CCN(c4ccc(C)nn4)CC3)ccc12 [VAPENDAVIR]
EC50 [11]: 1 ng/mL (≈ 0.00261 µM)

SMILES: CCCc1noc2cc(OCCC3CCN(c4ccc(C)nn4)CC3)ccc12
EC50 [10]: 13 ng/mL (≈ 0.0342 µM)
EC50 [11]: 84 ng/mL (≈ 0.221 µM)

SMILES: CCOc1noc2cc(OCCC3CCN(c4ccc(Cl)nn4)CC3)ccc12
EC50 [10]: 19 ng/mL (≈ 0.0472 µM)
EC50 [11]: 3 ng/mL (≈ 0.00745 µM)

SMILES: CCCOc1noc2cc(OCCC3CCN(c4ccc(C)nn4)CC3)ccc12
EC50 [10]: 29 ng/mL (≈ 0.0731 µM)
EC50 [11]: 3 ng/mL (≈ 0.00757 µM)

SMILES: Cc1cc(CCCOc2c(C)cc(-c3noc(C(F)(F)F)n3)cc2C)on1 [PLECONARIL]
Ratio EC50 [1]: 2.1
Ratio EC50 [2]: 6
EC50 [3]: 49.2 ng/mL (≈ 0.129 µM)
Ratio EC50 [4]: 11.5
EC50 [5]: 388 ng/mL (≈ 1.02 µM)
EC50 [6]: 224 ng/mL (≈ 0.588 µM)
EC50 [7]: 23.2 ng/mL (≈ 0.0608 µM)
EC50 [8]: 37.4 ng/mL (≈ 0.0981 µM)
EC50 [9]: 33.8 ng/mL (≈ 0.0886 µM)

SMILES: CCOc1noc2cc(OCCCC3CCN(c4ccc(Cl)nn4)CC3)ccc12
EC50 [10]: 9 ng/mL (≈ 0.0216 µM)
EC50 [11]: 3 ng/mL (≈ 0.0072 µM)
